These results are taken from patent US20220088195A1, “Prevention or mitigation of T-cell bispecific antibody-related adverse effects” (Hoffmann-La Roche Inc., priority 2020, published 2022).

In data set [1] the test system is IL-2, TNF-α, IFN-γ and IL-6. Kind of data set: CD19-TCB induced serum cytokine release in humanized NSG mice (Luminex). The class given is in vivo. The conditions noted are these: 1.5 and 6 hrs post treatment, 50 mg/kg dasatinib p.o., monohydrate.
Procedure: Humanized NSG mice were co-treated with 0.5 mg/kg CD19-TCB (i.v.) and 50 mg/kg dasatinib (p.o.) twice per day. Blood was collected by tail vein bleeding at 1.5 hrs, 6 hrs and 48 hrs after treatment with CD19-TCB. At 72 hrs, blood was collected retro-orbitally, before the termination of the experiment. N=4 mice per group.
Serum was collected from blood samples collected 1.5 hrs post treatment with CD19-TCB in the experiment described in FIG. 32. The levels of IL-2 (A), TNF-α (B), IFN-γ (C) and IL-6 (D) are measured by Luminex. Mean of n=4 mice+/−SEM. One way ANOVA, Kruskal Wallis test, p-value: 0.1234 (ns), 0.0332 (*), 0.0021 (**), 0.0001 (***), <0.0001 (****).
Serum is collected from blood samples collected 6 hrs post treatment with CD19-TCB in the experiment described in FIG. 32. The levels of IL-2 (A), TNF-α (B), IFN-γ (C) and IL-6 (D) are measured by Luminex. Mean of n=4 mice+/−SEM. One way ANOVA, Kruskal Wallis test, p-value: 0.1234 (ns), 0.0332 (*), 0.0021 (**), 0.0001 (***), <0.0001 (****).
To best mimick the pharmacodynamic profile of dasatinib in the clinic and to verify whether the resulting exposure would be sufficient to prevent CD19-TCB-induced T cell cytotoxicity and cytokine release, dasatinib was given per os twice per day.
Lastly, mice were bled 1.5 and 6 hrs post treatment with CD19-TCB and dasatinib to collect serum for cytokine measurements by Luminex (FIGS. 35 and 36).
For data set [2], the system named is MKN45 NLR target cells. Kind of data set: Incucyte real time killing assay, PBMCs + MKN45 NLR target cells + CEA-TCB with escalating dasatinib. The class given is cell-based, human. The procedure:
FIG. 1. Real time killing of red fluorescent A375 cells loaded with RMF peptides by 10 nM HLA-A2 WT-1-TCB (A) and of red fluorescent MKN45 cells by 1 nM CEA-TCB (B) in the presence of different dasatinib concentrations ranging from 100 nM to 0 nM. (A) A375 NucLight Red (NLR) target cells were pulsed with RMF peptides (2 hours before killing assay) and co-cultured with HLA-A2 WT1-TCB, dasatinib (dasa) and PBMCs, effector to target ratio (E:T)=10:1 (E:T=50 000 PBMCs:5000 target cells). Killing was followed by Incucyte® (1 scan every 3 hours, zoom 10×, phase and red 400 ms acquisition time). % Killing was measured by normalizing total red area with values at t=0 hour and target cells+PBMCs+dasatinib (without TCB) control wells for each time point. Means of technical replicates+/−SEM for 1 donor. (B) MKN45 NLR target cells were co-cultured with CEA TCB, dasatinib and PBMCs, E:T=10:1 (E:T=50 000 PBMCs:5000 target cells). Killing was followed by Incucyte (1 scan every 3 hours, zoom 10×, phase and red 400 ms acquisition time). % Killing was measured by normalizing total red area with values at t=0 hour and target cells+PBMCs+dasatinib control wells for each time point. Means of technical replicates+/−SEM for 1 donor.
To assess the inhibitory effect of dasatinib on TCB-mediated target-cell killing, we conducted killing assays using peripheral blood mononuclear cells (PBMCs), NucLight Red (NLR) target-cells and respective TCB in media supplemented with escalating concentrations of dasatinib. The Incucyte® system (Essen Bioscience) was used to capture the loss of red fluorescent protein signal over time as a readout of target-cell killing.

Data set [3] has as its system Z138 target cells. Kind of data set: Two-stimulation killing assay, PBMCs + Z138 target cells + CD20-TCB. The class given is cell-based, human. The conditions noted are these: 100 nM dasatinib upon re-stimulation; 1 nM CD20-TCB. On the procedure: FIG. 23. In vitro killing assay set-up and timelines. PBMCs were co-cultured with carboxyfluorescein succinimidyl ester (CFSE) labelled Z138 target cells (E:T=5:1) and […] 1 nM CD20-TCB for 20h. Activated PBMCs were washed and restimulated on fresh, CTV labelled Z138 target cells (E:T=5:1) and 1 nM CD20-TCB in the presence or absence of 100 nM dasatinib.
FIG. 24. Dead Z138 cells upon first and second stimulation with 1 nM CD20-TCB in the presence and absence of 100 nM dasatinib in the assay of FIG. 23, as measured by flow cytometry. Cells were collected 20h after the first and 24 h after the second stimulation and stained with live dead NIR dye. Mean of technical replicates+/−SD. N=3 donors.
FIG. 25. Dead Z138 cells upon second stimulation with 1 nM CD20-TCB in the presence and absence of 100 nM dasatinib in the assay of FIG. 23, as measured by flow cytometry. Cells were collected 24 h after second stimulation and stained with live dead NIR dye. Mean of technical replicates+/−SD. Three donors D1-D3 (A-C).
A similar re-stimulation experiment was performed with a different TCB, targeting CD20 (CD20-TCB (SEQ ID NOs 28-35, 48-59), 1 nM), and the killing of Z138 target cells measured after the first and second stimulation (FIG. 23).

The test system of data set [4] is CD4+ and CD8+ T cells. Kind of data set: T cell proliferation (CTV dye dilution) and T cell counts in SKM-1 killing assay with HLA-A2 WT-1-TCB. In kind it is cell-based, human. On the procedure:
FIG. 3. In vitro killing assay set-up and timelines. PBMCs were co-cultured with SKM-1 target cells (E:T=10:1) and 10 nM HLA-A2 WT-1-TCB. Dasatinib (100 nM) was added after 24 hours of activation. PBMCs were labelled with CellTrace™ Violet (CTV) to allow T cell proliferation assessment.
FIG. 6. T cell proliferation. In the assay of FIG. 3, proliferation of CD4+ (A) and CD8+ (B) T cells was measured by FACS 144h after stimulation with HLA-A2 WT-1 TCB by analysis of CTV dye dilution.
FIG. 7. Counts of CD4+ and CD8+ T cells. In the assay of FIG. 3, CD4+ (A) and CD8+(B) T cells counts were measured by FACS, mean of 3 donors+/−SD. paired t test, one tailed p value: 0.1234 (ns), 0.0332 (*), 0.0021 (**), 0.0002 (***), <0.0001 (****).
Furthermore, we assessed T cell proliferation 120 hours after the addition of 100 nM dasatinib in the killing assay by measuring the dilution peaks of the CellTrace™ violet (CTV) dye by flow cytometry.

In data set [5] the test system is lymphoma patient derived xenograft (PDX). Kind of data set: Humanized NSG mice engrafted with lymphoma PDX: serum cytokines, body weight, tumor growth. The class given is in vivo.
Procedure: Humanized NSG mice were engrafted with a lymphoma PDX (5 million cells, s.c.). When tumors reached 200 mm^3, mice were randomized in groups of 8 or 7 based on their tumor size. They were treated with vehicle (i.v.), 0.5 mg/kg CD19-TCB (i.v.) as a monotherapy, 20 mg/kg dasatinib (p.o.) alone or in combination with 0.5 mg/kg CD19-TCB (i.v.). The serum of each mouse in the vehicle, CD19-TCB, and CD19-TCB+dasatinib groups and of n=4 mice in the dasatinib group was collected by tail-vein bleeding 6 hrs after the first treatment with CD19-TCB.
Cytokine levels in each individual mouse from the experiment described in FIG. 37. The levels of IFN-γ (A), TNF-α (B), IL-2 (C) and IL-6 (D) were measured in the serum by multiplex cytokine analysis using Luminex. Mean of n=6-8 mice+/−SEM with *p≤0.05, **p≤0.01, ***p≤0.001 by 1 way ANOVA (Kruskal Wallis test).
Body weight loss for each individual mouse from the experiment described in FIG. 37. The change in body weight [%] is measured as a percentage of the body weight before first treatment with CD19-TCB for each mouse. Box and whiskers showing minimum to maximum values of n=6-8 mice per group.
Tumor growth curves of the experiment described in FIG. 37. Tumor growth curves were plotted from tumor volumes measured using a Caliper, mean of n=6-8 mice+SD with **p≤0.01 by 1 way ANOVA (Kruskal Wallis test).
We evaluated the impact of transient interventions with dasatinib on CD19-TCB anti-tumor activity in humanized NSG mice engrafted with a lymphoma patient derived xenograft (PDX). Therefore, mice were treated with either vehicle, 0.5 mg/kg CD19-TCB as a monotherapy, or 20 mg/kg dasatinib, alone or in combination with 0.5 mg/kg CD19-TCB (FIG. 37). Dasatinib was given one hour prior and 6 hrs after the first treatment with CD19-TCB and then twice per day for the next 2 days to prevent cytokine release, predominantly occurring upon the first infusion. Moreover, dasatinib was also administered one hour before each subsequent treatment to prevent eventual residual cytokine secretion (FIG. 37).

What is called inhibition is the share of the control response that was lost under treatment.

With `Cc1nc(Nc2ncc(C(=O)Nc3c(C)cccc3Cl)s2)cc(N2CCN(CCO)CC2)n1` [dasatinib, N-(2-chloro-6-methylphenyl)-2-[[6-[4-(2-hydroxyethyl)-1-piperazinyl]-2-methyl-4-pyrimidinyl]amino]-5-thiazole carboxamide monohydrate], the “CD19-TCB-induced serum IL-2, TNF-α, IFN-γ and IL-6” value in data set [1] (listed as Dasatinib) is on record as “prevents CD19-TCB induced cytokine release in vivo”; in data set [1], “inhibited”. Besides, the inhibition at 0.0125 µM in data set [2] (Homo sapiens, MKN-45, 12.5 nM dasatinib, 1 nM CEA-TCB, read-out: inhibition of target-cell killing) was 69%. Besides, in data set [2] (Homo sapiens, MKN-45, 50 nM (24.4 ng/mL) dasatinib, 1 nM CEA-TCB, read-out: inhibition of target-cell killing), the inhibition at 0.05 µM turned out to be 88.2%. The inhibition at 0.1 µM in data set [2] (Homo sapiens, MKN-45, 100 nM (48.8 ng/mL) dasatinib, 1 nM CEA-TCB, read-out: inhibition of target-cell killing) was 90.4%. In addition, the “threshold in vitro concentration for preventing T cell mediated target-cell lysis” value in data set [2] (PBMCs stimulated with both TCB (CEA-TCB, HLA-A2 WT-1-TCB)) amounted to 12.5 nM. For the same compound, in data set [2] (dasatinib concentrations below 12.5 nM, 1 nM CEA-TCB), the inhibition of killing entry is reported as “only partially inhibited killing”. Further, the “killing of CTV labelled Z138 target cells (ON/OFF versus ON/ON)” value in data set [3] is reported as “effectively prevented the killing”. Moreover, in data set [4] (100 nM dasatinib added at 24 h, 120 hours after addition, 10 nM HLA-A2 WT-1-TCB), the “TCB-induced T cell proliferation (CTV dilution)” value is given as “inhibited TCB-induced T cell proliferation with a stronger impact on CD4+ T cells than CD8+ T cells”. Besides, the “CD4+ and CD8+ T cell counts” value in data set [4] (100 nM dasatinib versus positive control without dasatinib) was “significantly higher in positive control samples which were not treated with 100 nM dasatinib, than in samples treated with 100 nM dasatinib”. In addition, the “CD19-TCB-mediated cytokine release (IFN-γ, TNF-α, IL-2, IL-6) upon the first infusion” value in data set [5] (20 mg/kg dasatinib p.o. + 0.5 mg/kg CD19-TCB i.v., serum 6 hrs) is “strongly reduced”. The body weight change result in data set [5] (24 hrs after the first CD19-TCB treatment, 20 mg/kg dasatinib) is “milder body weight change”. Also, the “interference with CD19-TCB anti-tumor efficacy (tumor growth curves)” value in data set [5] (transient use of 20 mg/kg dasatinib with 0.5 mg/kg CD19-TCB) is recorded as “minimally, yet not significantly, interfered”.
